Laboratory results published in PubChem BioAssay AID248 (DTP/NCI, 2004).
Values joined by “and” are separate entries in the source; they are usually repeats but may differ in a detail not shown here. Equal values may be shown once. Toxic doses and inconclusive results are not listed. No stated cut-off is given here; in the data, active means T/C of 150% or more; inactive means T/C below 125%.

Test system: L1210 leukemia ip in BDF1 mice, survival T/C
Experiment: NCI In Vivo Anticancer Drug Screen. Data for tumor model L1210 Leukemia (intraperitoneal) in B6D2F1 (BDF1) mice
Settings: endpoint: mean survival time, higher = longer survival
Summary of the method: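 Each compound was tested against a transplantable tumor grown in mice. The endpoint was survival, with treated animals benchmarked against vehicle controls as a simple ratio.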

[1] = dose: 100.0 mg/kg/injection, schedule: Q04DX003 (ip), vehicle: Klucel (hydroxypropylcellulose) (HPC)
[2] = dose: 200.0 mg/kg/injection, schedule: Q04DX003 (ip), vehicle: Klucel (hydroxypropylcellulose) (HPC)
[3] = dose: 400.0 mg/kg/injection, schedule: Q04DX003 (ip), vehicle: Klucel (hydroxypropylcellulose) (HPC)
[4] = dose: 100.0 mg/kg/injection, schedule: Q01DX001 (ip), vehicle: saline
[5] = dose: 100.0 mg/kg/injection, schedule: Q01DX009 (ip), vehicle: Klucel (hydroxypropylcellulose) (HPC)
[6] = dose: 200.0 mg/kg/injection, schedule: Q01DX009 (ip), vehicle: Klucel (hydroxypropylcellulose) (HPC)
[7] = dose: 400.0 mg/kg/injection, schedule: Q01DX009 (ip), vehicle: Klucel (hydroxypropylcellulose) (HPC)
[8] = dose: 200.0 mg/kg/injection, schedule: Q01DX001 (ip), vehicle: saline
[9] = dose: 400.0 mg/kg/injection, schedule: Q01DX001 (ip), vehicle: saline
[10] = dose: 50.0 mg/kg/injection, schedule: Q01DX009 (ip), vehicle: Klucel (hydroxypropylcellulose) (HPC)
[11] = dose: 12.5 mg/kg/injection, schedule: Q01DX009 (ip), vehicle: saline
[12] = dose: 25.0 mg/kg/injection, schedule: Q01DX009 (ip), vehicle: saline
[13] = dose: 50.0 mg/kg/injection, schedule: Q01DX009 (ip), vehicle: saline
[14] = dose: 100.0 mg/kg/injection, schedule: Q04DX003 (ip), vehicle: saline with Tween-80
[15] = dose: 200.0 mg/kg/injection, schedule: Q04DX003 (ip), vehicle: saline with Tween-80
[16] = dose: 400.0 mg/kg/injection, schedule: Q04DX003 (ip), vehicle: saline with Tween-80
[17] = dose: 50.0 mg/kg/injection, schedule: Q01DX001 (ip), vehicle: saline
[18] = dose: 75.0 mg/kg/injection, schedule: Q01DX001 (ip), vehicle: other
[19] = dose: 150.0 mg/kg/injection, schedule: Q01DX001 (ip), vehicle: other
[20] = dose: 6.25 mg/kg/injection, schedule: Q01DX009 (ip), vehicle: saline
[21] = dose: 100.0 mg/kg/injection, schedule: Q01DX009 (ip), vehicle: saline
[22] = dose: 200.0 mg/kg/injection, schedule: Q01DX009 (ip), vehicle: saline

Measured: T/C

COc1ccc(C(=S)N(C)c2ccccc2C)cc1
inactive: dose: 100.0 mg/kg/injection, schedule: Q01DX001 (ip), vehicle: Klucel (hydroxypropylcellulose) (HPC) 98 % of control | [1] 96 % of control | dose: 200.0 mg/kg/injection, schedule: Q01DX001 (ip), vehicle: Klucel (hydroxypropylcellulose) (HPC) 112 % of control | [2] 103 % of control | dose: 400.0 mg/kg/injection, schedule: Q01DX001 (ip), vehicle: Klucel (hydroxypropylcellulose) (HPC) 105 % of control | [3] 100 % of control

COc1ccc(NC(=O)Nc2ccc(CCO)cc2)c(OC)c1
inactive: dose: 100.0 mg/kg/injection, schedule: Q04DX002 (ip), vehicle: Klucel (hydroxypropylcellulose) (HPC) 97 % of control | dose: 200.0 mg/kg/injection, schedule: Q04DX002 (ip), vehicle: Klucel (hydroxypropylcellulose) (HPC) 93 % of control | dose: 400.0 mg/kg/injection, schedule: Q04DX002 (ip), vehicle: Klucel (hydroxypropylcellulose) (HPC) 93 % of control

O=C(/C=C\c1ccc([N+](=O)[O-])cc1)NCCCCNC(=O)/C=C/c1ccc([N+](=O)[O-])cc1
inactive: [4] 96 % of control

O=C(O)C(Sc1ccc(Cl)cc1)Sc1ccc(Cl)cc1
inactive: dose: 50.0 mg/kg/injection, schedule: Q04DX003 (ip), vehicle: Klucel (hydroxypropylcellulose) (HPC) 103 % of control | [1] 103 % of control | [2] 95 % of control

O=C(NC(=S)Nc1ccc(Cl)cc1C(=O)c1ccccc1)c1ccc(Cl)cc1Cl
inactive: [5] 93 % of control | [6] 96 % of control | [7] 94 % of control

O=C1Nc2cccc3cc(O)cc1c23
inactive: [4] 105 % of control | [8] 87 % of control | [9] 92 % of control

O=C1C=C(NCCc2cnc[nH]2)c2ccccc2C1=O
inactive: [10] 92 % of control | [5] 103 % of control

O=C(O)C(S)C(S)C(=O)O.[As] (stereo not given)
inactive: [11] 96 % of control | [12] 104 % of control | [13] 98 % of control

C1=CC2CC3(OCCO3)C2C1 (stereo not given)
inactive: [14] 95 % of control | [15] 92 % of control | [16] 92 % of control

C=C1C(=O)OC2CC3(C)C(O)CCC(=C)C3C(OC(C)=O)C12 (stereo not given) (tested in a mixture with another compound)
inactive: [4] 104 % of control

COc1ccc(S(=O)(=O)NC(=O)NCC=C(C)C)cc1
inactive: [10] 98 % of control | [5] 98 % of control | [1] 93 % of control | [6] 96 % of control | [2] 103 % of control | [3] 94 % of control

CCOC(=O)C(C#N)c1ccccc1 (stereo not given)
inactive: [17] 96 % of control | [4] 100 % of control | [8] 100 % of control

COCC(=N)C(C#N)(OC)C(=O)c1ccccc1 (stereo not given)
inactive: [18] 101 % of control | [19] 90 % of control

CC[As](=O)(O)c1ccccc1
inactive: [20] 89 % of control | [11] 89 % of control

CC(C)N(CCCO)C(C)C
inactive: [13] 95 % of control | [21] 93 % of control | [14] 95 % of control | [22] 95 % of control | [15] 97 % of control

Cc1ccccc1NC(=S)NCCC(=O)O
inactive: dose: 100.0 mg/kg/injection, schedule: Q04DX002 (ip), vehicle: saline with Tween-80 105 % of control | dose: 200.0 mg/kg/injection, schedule: Q04DX002 (ip), vehicle: saline with Tween-80 97 % of control | dose: 400.0 mg/kg/injection, schedule: Q04DX002 (ip), vehicle: saline with Tween-80 97 % of control

Nc1ccc2c(c1)C(O)c1cc(N)c(Br)cc1-2 (stereo not given)
inactive: dose: 100.0 mg/kg/injection, schedule: Q01DX001 (ip), vehicle: carboxymethylcellulose (CMC) 103 % of control | dose: 200.0 mg/kg/injection, schedule: Q01DX001 (ip), vehicle: carboxymethylcellulose (CMC) 110 % of control | dose: 400.0 mg/kg/injection, schedule: Q01DX001 (ip), vehicle: carboxymethylcellulose (CMC) 103 % of control

COc1cccc(/C=N/Nc2nnc(N/N=C/c3cccc(OC)c3OC)c3ccccc23)c1OC
inactive: [17] 92 % of control | [4] 92 % of control | [8] 92 % of control | [9] 94 % of control

O=C(O)/C(=C\CCCCCC/C=C(\CCO)C(=O)O)CCO
inactive: [5] 98 % of control | [1] 96 % of control | [6] 91 % of control | [2] 93 % of control | [7] 89 % of control | [3] 93 % of control

COc1cc(CC#N)ccc1C
inactive: dose: 12.5 mg/kg/injection, schedule: Q01DX009 (ip), vehicle: alcohol 104 % of control | dose: 25.0 mg/kg/injection, schedule: Q01DX009 (ip), vehicle: alcohol 98 % of control | dose: 50.0 mg/kg/injection, schedule: Q01DX009 (ip), vehicle: alcohol 101 % of control

Cc1cccc[n+]1CC(=O)c1ccccc1
inactive: dose: 100.0 mg/kg/injection, schedule: Q04DX003 (ip), vehicle: saline 94 % of control

CC(=O)OC1COC(NC(=O)NCCCl)C(OC(C)=O)C1OC(C)=O (stereo not given)
inactive: [1] 109 % of control | [2] 103 % of control | [3] 103 % of control

CC(Cc1ccccc1)NCCCCl (stereo not given)
inactive: dose: 15.0 mg/kg/injection, schedule: Q01DX001 (ip), vehicle: carboxymethylcellulose (CMC) 89 % of control | dose: 30.0 mg/kg/injection, schedule: Q01DX001 (ip), vehicle: carboxymethylcellulose (CMC) 95 % of control | dose: 60.0 mg/kg/injection, schedule: Q01DX001 (ip), vehicle: carboxymethylcellulose (CMC) 93 % of control

Cc1cc2oc(/C=N/Nc3ccc([N+](=O)[O-])cc3[N+](=O)[O-])c(C)c2cc1C
inactive: [5] 94 % of control | [6] 94 % of control | [7] 89 % of control

NC(CSC(c1ccccc1)(c1ccccc1)c1ccc(O)cc1)C(=O)O (stereo not given)
inactive: [20] 111 % of control | [11] 105 % of control | [12] 116 % of control | [18] 104 % of control | [19] 109 % of control

CC12C=CC(CC1)C2(C)C (stereo not given)
inactive: [21] 95 % of control | [22] 92 % of control

O=c1cc(Cl)c2ccccc2[nH]1
inactive: dose: 100.0 mg/kg/injection, schedule: Q01DX009 (ip), vehicle: saline with Tween-80 95 % of control | [14] 103 % of control | dose: 200.0 mg/kg/injection, schedule: Q01DX009 (ip), vehicle: saline with Tween-80 91 % of control | [15] 94 % of control | dose: 400.0 mg/kg/injection, schedule: Q01DX009 (ip), vehicle: saline with Tween-80 100 % of control | [16] 103 % of control

COc1ccc([N+](=O)[O-])cc1NS(=O)(=O)c1ccc(Cl)cc1
inactive: [5] 102 % of control | [6] 98 % of control | [7] 93 % of control

CN(C)CCC(C(=O)c1ccccc1)c1ccccn1 (stereo not given)
inactive: dose: 55.0 mg/kg/injection, schedule: Q01DX Z (ip), vehicle: saline 100 % of control | dose: 83.0 mg/kg/injection, schedule: Q01DX Z (ip), vehicle: saline 107 % of control | dose: 125.0 mg/kg/injection, schedule: Q01DX Z (ip), vehicle: saline 96 % of control

O=C(Nc1ccc([N+](=O)[O-])cc1)N(c1cc(Cl)ccn1)C1CCCCC1
inactive: [4] 96 % of control | [8] 90 % of control | [9] 96 % of control

O=C1CCCC/C1=C/c1ccccc1
inactive: [5] 102 % of control and 112 % of control | [1] 97 % of control and 96 % of control | [6] 102 % of control | [2] 104 % of control and 101 % of control | [7] 102 % of control and 96 % of control | [3] 104 % of control and 100 % of control

COc1nc2ccccc2nc1N1CC1
inactive: dose: 26.0 mg/kg/injection, schedule: Q01DX009 (ip), vehicle: acetone 103 % of control | dose: 40.0 mg/kg/injection, schedule: Q01DX009 (ip), vehicle: acetone 101 % of control | dose: 60.0 mg/kg/injection, schedule: Q01DX009 (ip), vehicle: acetone 108 % of control | dose: 90.0 mg/kg/injection, schedule: Q01DX009 (ip), vehicle: acetone 101 % of control | dose: 135.0 mg/kg/injection, schedule: Q01DX009 (ip), vehicle: acetone 121 % of control

C=C1C(=O)OC2CC3(C)C(OC(C)=O)CC=C(C)C3C(OC(C)=O)C12 (stereo not given) (tested in a mixture with another compound)
inactive: dose: 75.0 mg/kg/injection, schedule: Q01DX001 (ip), vehicle: saline 96 % of control | dose: 150.0 mg/kg/injection, schedule: Q01DX001 (ip), vehicle: saline 100 % of control
